Entries after “also recorded” stand apart in the source; their conditions may differ.
Experiments:
[1] = test system: acute graft-versus-host disease; assay: Mouse survival in acute graft-versus-host disease after bone marrow transplantation; type: in vivo, Balb/c mouse; details: 1 mg/kg, peritoneal injections every other day
Excerpt: (§1) To induce acute graft-versus-host disease, bone marrow cells (5×10^7 cells) and spleen cells (1×10^7 cells) of the C57BL/6 mouse were transplanted to the Balb/c mouse, which had been irradiated and had lost immune function.

[2] = test system: acute graft-versus-host disease; type: in vivo, Balb/c mouse; details: 1 mg/kg, peritoneal injections every other day; weight loss from 2nd to 6th day, regain from 7th day; control mice lost weight up to 9th day and died
Excerpt: as §1

T-cells [3] = assay: ConA-induced T-cell proliferation, [3H]-thymidine incorporation; type: cell-based, C57BL/6 mouse; details: 1 μg/ml ConA; 3, 10, 30 ng/ml compound
Description: (§2) T-cells were separated from the spleen of the C57BL/6 mouse for the experiment. 1 μg/ml concanavalin A (ConA) was used to generate the proliferation of T-cells, and 1 μg/ml lypopolysaccaride induced proliferation of the B-cells. The prodigiosin separated in Execution Example 1 was melted in dimethyl sulfoxide (DMSO) and was added to the culture medium in a manner to achieve a final concentration of 3, 10, 30 ng/ml. After 60 hours of cultivation, [^3H]-thymidine was added to the culture medium with a concentration of 1 μCi/well. After 12 hours, the cells were collected and the amount of radioactivity in the DNA was measured.
T-cells were separated from the spleen of the C57BL/6 mouse for the experiment. 1 μg/ml ConA and 10 unit/ml IL-2 were used to generate the proliferation of T-cells. In the control group, 1 μg/ml ConA induced the proliferation of T-cells. […] After 12 hours, the cells were collected and the amount of radioactivity in the DNA was measured.
T-cells were separated from the spleen of the C57BL/6 mouse for the experiment. […] After 12 hours, the cells were collected and the amount of radioactivity in the DNA was measured. […]
Prodigiosin was melted in DMSO and added to the culture medium in a manner to achieve a final concentration of 3, 10, 30 ng/ml. […] After 12 hours, the cells were collected and the amount of radioactivity in the DNA was measured. […]

B-cells = assay: Lipopolysaccharide-induced B-cell proliferation, [3H]-thymidine incorporation; type: cell-based, C57BL/6 mouse; details: 1 μg/ml lipopolysaccharide; 3, 10, 30 ng/ml compound
Description: as §2

IL-2 mRNA = assay: Expression of IL-2 mRNA in ConA-activated T-cells, RT-PCR; type: cell-based, C57BL/6 mouse; details: 1 μg/ml ConA, 4 hours, 3, 10, 30 ng/ml compound
Description: T-cells were separated from the spleen of the C57BL/6 mouse for the experiment. 1 μg/m ConA was used to activate the T-cells. […]. After 4 hours of cultivation, the cells were collected. After separating the RNA from the cells, the degree of expression of IL-2 mRNA was measured through RT-PCR (reverse transcription-polymerase chain reaction).

[4] = test system: IL-2 receptors (IL-2R alpha); assay: Expression of IL-2 receptor (IL-2R alpha) mRNA in ConA-activated T-cells, RT-PCR; type: cell-based, C57BL/6 mouse; details: 1 μg/ml ConA, 4 hours, 3, 10, 30 ng/ml compound
T-cells [5] = assay: T-cell proliferation induced by ConA plus added IL-2, [3H]-thymidine incorporation; type: cell-based, C57BL/6 mouse; details: 1 μg/ml ConA and 10 unit/ml IL-2; 3, 10, 30 ng/ml compound
Description: (§3) T-cells were separated from the spleen of the C57BL/6 mouse for the experiment. 1 μg/ml ConA and 10 unit/ml IL-2 were used to generate the proliferation of T-cells. In the control group, 1 μg/ml ConA induced the proliferation of T-cells. Prodigiosin was melted in DMSO and added to the culture medium in a manner to achieve a final concentration of 3, 10, 30 ng/ml. After 60 hours of cultivation, [^3H]-thymidine was added to the culture medium with a concentration of 1 μCi/well. After 12 hours, the cells were collected and the amount of radioactivity in the DNA was measured.
as §3, with “Prodigiosin was melted in DMSO and added to the culture medium in a manner to achieve a final concentration of 3, 10, 30 ng/ml.” left out

IL-2 dependent T-cells = assay: IL-2-dependent T-cell proliferation (ConA pre-treated cells), [3H]-thymidine incorporation; type: cell-based, C57BL/6 mouse; details: cells pre-treated with 1 μg/ml ConA 48 hours, washed, 10 unit/ml IL-2; 3, 10, 30 ng/ml compound
Description: (§4) In order to measure IL-2 dependent T-cell proliferation, T-cells separated from the spleen of the mouse were treated with 1 μg/ml ConA for 48 hours. Then, the cells were washed three times to get rid of all ConA for further experiment. […] 10 unit/ml IL-2 was added to the pre-treated cells to induce T-cell proliferation (IL-2-dependent T cell proliferation).
Prodigiosin was melted in DMSO and added to the culture medium in a manner to achieve a final concentration of 3, 10, 30 ng/ml. After 60 hours of cultivation, [^3H]-thymidine was added to the culture medium with a concentration of 1 μCi/well. After 12 hours, the cells were collected and the amount of radioactivity in the DNA was measured.
as §4, with “all the” for “all”, “T-cell” for “T cell”
After 60 hours of cultivation, [^3H]-thymidine was added to the culture medium with a concentration of 1 μCi/well. After 12 hours, the cells were collected and the amount of radioactivity in the DNA was measured.

CCCCCC1=C/C(=C/c2[nH]c(-c3ccc[nH]3)cc2OC)N=C1C [prodigiosin]
Balb/c mice died six days after the cell transplantation ([1]; control group 50% died by day 6): 35%
mice survived through to the end of the experiment ([1]; observed for 14 days, all control mice died by the 10th day): 65%
changes in weight of the mice [2]: recovered normal weight by the 14th day
effect on proliferation of T-cells induced by ConA (T-cells [3]): selectively suppressed the proliferation of T-cells; also recorded: suppressed T-cells proliferated by ConA
effect on proliferation of B-cells (B-cells): could not suppress the proliferation of B-cells
effect on expression of IL-2 mRNA (IL-2 mRNA): did not influence the expression of IL-2 mRNA
effect on expression of IL-2 receptor mRNA [4]: efficiently suppressed the expression of IL-2 mRNA
effect of added IL-2 on the suppression of T-cell proliferation (T-cells [5]): did not suppress the excessive amount of IL-2 that was added from the outside
effect on IL-2-dependent T-cell proliferation (IL-2 dependent T-cells): did not suppress the T-cell proliferation by IL-2
